# Patent US20240216401A1, “COMBINATION THERAPY BY USING AKR1C3-ACTIVATED COMPOUND WITH IMMUNE CHECKPOINT INHIBITOR” (OBI Pharma, Inc., priority 2021, published 2024)
# Values joined by “and” are separate entries in the source; they are usually repeats but may differ in a detail not shown here. Equal values may be shown once.
# Key:
# [1] = tested on: PD-L1^+ cells in tumor-infiltrating lymphocytes; test: Example 2: flow cytometry, percentage of PD-L1^+ cells in TILs; format: in vivo, Mus musculus
# Description: (§1) Mice were sacrificed by CO2 euthanasia at the end of the study duration, and the connective tissue around tumor was resected. The tumor samples were then weighed and cut equally into three sections if the tumor weight over 400 mg. The tumor tissue was prepared for the isolation of tumor-infiltrating lymphocytes (TILs). The rest of one section was fixed in 10% formaldehyde and embedded in paraffin; the other was stored at a temperature below −70° C.
# (§2) The tumor samples were dissected into smaller fragments using scalpels and then digested with a cocktail of collagenase, DNase I, and Hyaluronidase (Collagenase #C5138, DNase I #D5025, Hyaluronidase #H6254, SigmaAldrich) for at least 2 hours.
# (§3) Cells were stained with the fluorescently conjugated surface antibodies and incubated for 30 minutes at 4° C., and then resuspended in staining buffer for flow cytometric analysis. Flow cytometry was done using a Navios EX Flow Cytometer (Beckman Coulter). Data were analyzed using the Kaluza Analysis Software (Beckman Coulter).
# [2] = tested on: CTL cells (CD45^+CD8^+ T cells) in tumor-infiltrating lymphocytes; test: Example 2: flow cytometry, percentage of CTL cells in TILs; format: in vivo, Mus musculus
# Description: as §1, §2, §3
# [3] = G2, OBI-3424 0.3 mg/kg, group Mean
# [4] = G2, OBI-3424 0.3 mg/kg, individual animal, 0.3 mg/kg
# [5] = G3, OBI-3424 1 mg/kg, group Mean
# [6] = G3, OBI-3424 1 mg/kg, individual animal, 1 mg/kg
compound,measurement,setting,value
"C[C@H](OP(=O)(N1CC1)N1CC1)c1ccc([N+](=O)[O-])c(Oc2cccc(C(=O)N(C)C)c2)c1 [OBI-3424, (S)-1-(3-(3-N,N-dimethylaminocarbonyl)phenoxyl-4-mtrophenyl)-1-ethyl-N,N′-bis(ethylene)phosphoramidate]","PD-L1^+ cells (CD45^− PD-L1^+), CD45^− Gated %",[1]; [3],9.15%
same,"PD-L1^+ cells (CD45^− PD-L1^+), Cell count",[1]; [3],4.91 ×10^5
same,"PD-L1^+ cells (CD45^− PD-L1^+), Total %",[1]; [3],1.95%
same,"Total PD-L1^+ cells (PD-L1^+), Cell count",[1]; [3],9.60 ×10^5
same,"Total PD-L1^+ cells (PD-L1^+), Total %",[1]; [3],3.79%
same,"Total PD-L1^+ cells (PD-L1^+), Total cells Gated %",[1]; [3],5.18%
same,"PD-L1^+ cells (CD45^− PD-L1^+), CD45^− Gated %",[1]; [4],15.51% and 5.86% and 9.64% and 4.13% and 12.53% and 7.23%
same,"PD-L1^+ cells (CD45^− PD-L1^+), Cell count",[1]; [4],9.41 ×10^5 and 2.07 ×10^5 and 10.69 ×10^5 and 0.07 ×10^5 and 6.63 ×10^5 and 0.61 ×10^5
same,"PD-L1^+ cells (CD45^− PD-L1^+), Total %",[1]; [4],4.84% and 1.01% and 1.98% and 0.35% and 2.69% and 0.84%
same,"Total PD-L1^+ cells (PD-L1^+), Cell count",[1]; [4],14.43 ×10^5 and 6.01 ×10^5 and 24.62 ×10^5 and 0.29 ×10^5 and 10.67 ×10^5 and 1.56 ×10^5
same,"Total PD-L1^+ cells (PD-L1^+), Total %",[1]; [4],7.42% and 2.94% and 4.56% and 1.34% and 4.33% and 2.15%
same,"Total PD-L1^+ cells (PD-L1^+), Total cells Gated %",[1]; [4],11.84% and 3.97% and 5.50% and 1.44% and 5.16% and 3.16%
same,"PD-L1^+ cells (CD45^− PD-L1^+), CD45^− Gated %",[1]; [5],4.40%
same,"PD-L1^+ cells (CD45^− PD-L1^+), Cell count",[1]; [5],0.38 ×10^5
same,"PD-L1^+ cells (CD45^− PD-L1^+), Total %",[1]; [5],0.48%
same,"Total PD-L1^+ cells (PD-L1^+), Cell count",[1]; [5],1.61 ×10^5
same,"Total PD-L1^+ cells (PD-L1^+), Total %",[1]; [5],2.08%
same,"Total PD-L1^+ cells (PD-L1^+), Total cells Gated %",[1]; [5],2.24%
same,"PD-L1^+ cells (CD45^− PD-L1^+), CD45^− Gated %",[1]; [6],4.18% and 2.31% and 4.37% and 7.16% and 4.63%
same,"PD-L1^+ cells (CD45^− PD-L1^+), Cell count",[1]; [6],0.08 ×10^5 and 0.30 ×10^5 and 0.41 ×10^5 and 0.51 ×10^5 and 0.49 ×10^5 and 0.47 ×10^5
same,"PD-L1^+ cells (CD45^− PD-L1^+), Total %",[1]; [6],0.27% and 0.24% and 0.58% (2×) and 0.52% and 0.66%
same,"Total PD-L1^+ cells (PD-L1^+), Cell count",[1]; [6],0.46 ×10^5 and 1.50 ×10^5 and 2.03 ×10^5 and 1.69 ×10^5 and 1.67 ×10^5 and 2.32 ×10^5
same,"Total PD-L1^+ cells (PD-L1^+), Total %",[1]; [6],1.58% and 1.19% and 2.88% and 1.71% and 2.24% and 2.86%
same,"Total PD-L1^+ cells (PD-L1^+), Total cells Gated %",[1]; [6],1.66% and 1.26% and 3.32% and 1.80% and 2.39% and 3.03%
same,CTL cells (CD45^+CD8^+ T cells) in TILs,"[2]; Example 2, mean±SEM, OBI-3424 1 mg/kg, alone (G3) or with anti-hPD-1 (G6), vehicle 15.53±5.66%",33.50±3.38%
same,CD25^+ CTL cells (CD45^+ CD8^+CD25^+) Cell count (×10^5),"[2]; G2: 0.3 mg/kg, group mean",2.93 ×10^5
same,CD25^+ CTL cells (CD45^+CD8^+ CD25^+) CTL Gated %,"[2]; G2: 0.3 mg/kg, group mean",5.60%
same,CD25^+ CTL cells (CD45^+CD8^+ CD25^+) Total %,"[2]; G2: 0.3 mg/kg, group mean",1.33%
same,CD69^+ CTL cells (CD45^+ CD8^+CD69^+) CTL Gated %,"[2]; G2: 0.3 mg/kg, group mean",69.71%
same,CD69^+ CTL cells (CD45^+ CD8^+CD69^+) Cell count (×10^5),"[2]; G2: 0.3 mg/kg, group mean",40.97 ×10^5
same,CD69^+ CTL cells (CD45^+ CD8^+CD69^+) Total %,"[2]; G2: 0.3 mg/kg, group mean",20.23%
same,CTL cells (CD45^+CD8^+) CD45^+ Gated %,"[2]; G2: 0.3 mg/kg, group mean",60.54%
same,CTL cells (CD45^+CD8^+) Cell count (×10^5),"[2]; G2: 0.3 mg/kg, group mean",55.19 ×10^5
same,CTL cells (CD45^+CD8^+) Total %,"[2]; G2: 0.3 mg/kg, group mean",26.12%
same,Granzyme B^+ CTL cells (CD45^+ CD8^+GrB+) CTL Gated %,"[2]; G2: 0.3 mg/kg, group mean",90.76%
same,Granzyme B^+ CTL cells (CD45^+ CD8^+GrB+) Cell count (×10^5),"[2]; G2: 0.3 mg/kg, group mean",61.54 ×10^5
same,Granzyme B^+ CTL cells (CD45^+ CD8^+GrB+) Total %,"[2]; G2: 0.3 mg/kg, group mean",26.31%
same,IFN-γ^+ CTL cells (CD45^+ CD8^+ IFN-γ^+) CTL Gated %,"[2]; G2: 0.3 mg/kg, group mean",0.89%
same,IFN-γ^+ CTL cells (CD45^+ CD8^+ IFN-γ^+) Cell count (×10^5),"[2]; G2: 0.3 mg/kg, group mean",0.47 ×10^5
same,IFN-γ^+ CTL cells (CD45^+ CD8^+ IFN-γ^+) Total %,"[2]; G2: 0.3 mg/kg, group mean",0.20%
same,PD-1^+ CTL cells (CD45^+CD8^+ PD-1^+) CTL Gated %,"[2]; G2: 0.3 mg/kg, group mean",75.96%
same,PD-1^+ CTL cells (CD45^+CD8^+ PD-1^+) Cell count (×10^5),"[2]; G2: 0.3 mg/kg, group mean",42.52 ×10^5
same,PD-1^+ CTL cells (CD45^+CD8^+ PD-1^+) Total %,"[2]; G2: 0.3 mg/kg, group mean",18.42%
same,CD25^+ CTL cells (CD45^+ CD8^+CD25^+) Cell count (×10^5),"[2]; G2: 0.3 mg/kg, individual mice",1.91 ×10^5 and 3.89 ×10^5 and 7.72 ×10^5 and 0.35 ×10^5 and 3.13 ×10^5 and 0.58 ×10^5
same,CD25^+ CTL cells (CD45^+CD8^+ CD25^+) CTL Gated %,"[2]; G2: 0.3 mg/kg, individual mice",11.79% and 5.81% and 3.87% and 3.93% and 4.86% and 3.31%
same,CD25^+ CTL cells (CD45^+CD8^+ CD25^+) Total %,"[2]; G2: 0.3 mg/kg, individual mice",0.98% and 1.90% and 1.43% and 1.62% and 1.27% and 0.80%
same,CD69^+ CTL cells (CD45^+ CD8^+CD69^+) CTL Gated %,"[2]; G2: 0.3 mg/kg, individual mice",62.46% and 73.01% and 61.79% and 85.14% and 68.69% and 67.19%
same,CD69^+ CTL cells (CD45^+ CD8^+CD69^+) Cell count (×10^5),"[2]; G2: 0.3 mg/kg, individual mice",10.13 ×10^5 and 48.79 ×10^5 and 123.34 ×10^5 and 7.53 ×10^5 and 44.17 ×10^5 and 11.85 ×10^5
